From patent US7078403B1, “Antiviral agents” (Biota Scientific Management Pty Ltd., priority 1999, dated 2006)

Key:
[1] = tested on: HRV type 1A; test: Inhibition of viral cytopathic effect (CPE), visual scoring or neutral red, HRV type 1A in MRC-5 cells; format: cell-based, human rhinovirus; settings: for Activity on Rhinovirus Type 1A EC50: HRV type 1A in MRC-5 cells, CPE inhibition; for Activity on Rhinovirus Type 1A SI: selectivity index = CC50 or MTC divided by EC50, HRV type 1A, MRC-5 cells
[2] = tested on: human embryo lung (MRC-5) cells; test: Cytotoxicity (CC50 or MTC) in uninfected MRC-5 cells; settings: unit not given
[3] = tested on: HRV type 2; test: Inhibition of viral cytopathic effect (CPE), visual scoring or neutral red, HRV type 2 in KB cells; format: cell-based, human rhinovirus; settings: for Activity on Rhinovirus Type 2 EC50: HRV type 2 in KB cells, CPE inhibition; for Activity on Rhinovirus Type 2 SI: selectivity index = CC50 or MTC divided by EC50, HRV type 2, KB cells
[4] = tested on: Rhinovirus Type 14; format: cell-based, human rhinovirus; settings: HRV-14

Structure (SMILES) | Activity on Rhinovirus Type 14 EC50 [4] [µg/mL] | Activity on Rhinovirus Type 1A EC50 [1] [µg/mL] | Activity on Rhinovirus Type 1A SI [1] | Activity on Rhinovirus Type 1A MTC [2] | Activity on Rhinovirus Type 2 EC50 [3] [µg/mL] | Activity on Rhinovirus Type 2 SI [3]
CCCON=Cc1ccc(OCCC2CCN(c3ccc(Cl)nn3)CC2)cc1 [Compound 11] | 0.0077 | <0.0032 | >312 | >1 | 0.004 | >250
CON=Cc1ccc(OCCC2CCN(c3ccc(C)nn3)CC2)cc1 [Compound 7] | 0.0068 | <0.0032 | >312 | >1 | 0.15 | >7
CCON=Cc1ccc(OCCC2CCN(c3ccc(C)nn3)CC2)c(O)c1 [Compound 146] | 0.0084 | 0.051 | >19 | >1 |  | 
CCON=Cc1ccc(OCCC2CCN(c3ccc(Cl)nn3)CC2)cc1 [Compound 57] |  | 0.001 | >56.3 | >0.1 | 0.00025 | >400
CON=Cc1cc(C)c(OCCCc2cc(C)no2)c(C)c1 [Compound 22] |  | <0.16 | >320 | 36.0 | <0.05 | >400
CON=Cc1ccc(OCCC2CCN(c3ccc(C)nn3)CC2)c(C)c1 [Compound 52] | 0.0054 | <0.003 | >312 | >1 |  | 
CCON=C(C)c1cc(OC)c(OCCC2CCN(c3ccc(Cl)nn3)CC2)c(OC)c1 [Compound 6] |  | 0.06 | >167.09 | >10.00 | 0.1 | >500
CCC(=NOC)c1ccc(OCCC2CCN(c3ccc(Cl)nn3)CC2)cc1 [Compound 10] |  | 0.0142 | >70.54 | >1 | 0.4 | >3
C=CCON=Cc1cc(C)c(OCCCc2cc(C)no2)c(C)c1 [Compound 23] |  | <0.16 | >320 | >50 | <0.05 | >340
CCON=Cc1ccc(OCC2CCCN(c3ccc(Cl)nn3)C2)cc1 (stereo not drawn) [Compound 28] |  | 0.180 | >5.5 | >1 | 0.06 | >17

Continued, in another order:

Activity on Rhinovirus Type 14 EC50 [4] [µg/mL] | Structure (SMILES) | Activity on Rhinovirus Type 1A EC50 [1] [µg/mL] | Activity on Rhinovirus Type 1A SI [1] | Activity on Rhinovirus Type 1A MTC [2] | Activity on Rhinovirus Type 2 EC50 [3] [µg/mL] | Activity on Rhinovirus Type 2 SI [3]
0.0032 | CCO/N=C/c1ccc(OCCC2CCN(c3ccc(C)nn3)CC2)cc1C [Compound 188] |  |  |  |  | 
0.0424 | CCON=Cc1ccc(OCCC2CCN(c3cccc(C)n3)CC2)cc1 [Compound 196] |  |  |  |  | 
0.0349 | CO/N=C/c1c(C)cc(OCCC2CCN(c3ccc(C)nn3)CC2)cc1C [Compound 186] |  |  |  |  | 
0.0514 | CCON=Cc1ccc(OCCC2CCN(c3nnc(C(F)(F)F)s3)CC2)cc1 [Compound 154] |  |  |  |  | 
0.038 | CCO/N=C/c1ccc(OCCCCN(C)c2ccc(Cl)nn2)cc1 [Compound 195] |  |  |  |  | 
0.021 | CO/N=C/c1ccc(OCCC2CCN(c3nc4ccccc4o3)CC2)cc1 [Compound 200] |  |  |  |  | 
0.0107 | CCO/N=C/c1ccc(OCCC2CCN(c3cc(C)c(Cl)nn3)CC2)cc1 [Compound 212] |  |  |  |  | 
0.0697 | CCO/N=C/c1c(C)cc(OCCC2CCN(c3ccc(C)nn3)CC2)cc1C [Compound 185] |  |  |  |  | 
0.0258 | CCON=Cc1ccc(OCCC2CCN(c3ccc(C)nn3)CC2)c(C)c1C [Compound 192] |  |  |  |  | 
0.0308 | CON=Cc1ccc(OCCC2CCN(c3ccc(C)nn3)CC2)c(C)c1C [Compound 193] |  |  |  |  | 
0.0402 | CO/N=C/c1ccc(OCCC2CCN(c3cncc(Cl)n3)CC2)cc1 [Compound 199] |  |  |  |  | 
0.0157 | CCO/N=C/c1ccc(OCCCCCOc2ccc(Cl)nn2)cc1 [Compound 209] |  |  |  |  | 
0.0261 | CCO/N=C/c1ccc(OCCC2CCN(c3nc4ccccc4o3)CC2)cc1 [Compound 201] |  |  |  |  | 
